This is an account of results in patent US11339161B2, “Triazolo pyridines as modulators of gamma-secretase” (Boehringer Ingelheim International GmbH, priority 2017, dated 2022).

One assay deals with PDGFRA (PDGFR alpha) (Homo sapiens, UniProt P16234). Kind of assay: Z'-LYTE SelectScreen biochemical kinase assay PDGFRA (PDGFR alpha). An excerpt:
(§1) Thermo Fisher Scientific SelectScreen™ Biochemical Kinase Profiling Service Z′-LYTE™ Screening Protocol and Assay Conditions Assay Theory
(§2) The […] biochemical assay employs a fluorescence-based, coupled-enzyme format and is based on the differential sensitivity of phosphorylated and non-phosphorylated peptides to proteolytic cleavage. The peptide substrate is labeled with two fluorophores—one at each end—that make up a FRET pair. In the primary reaction, the kinase transfers the gamma-phosphate of ATP to a single tyrosine, serine or threonine residue in a synthetic FRET-peptide. In the secondary reaction, a site-specific protease recognizes and cleaves non-phosphorylated FRET-peptides. Phosphorylation of FRET-peptides suppresses cleavage by the Development Reagent. Cleavage disrupts FRET between the donor (i.e., coumarin) and acceptor (i.e., fluorescein) fluorophores on the FRET-peptide, whereas uncleaved, phosphorylated FRET-peptides maintain FRET. A ratiometric method, which calculates the ratio (Emission Ratio=Coumarin emission (445 nm)/Fluorescein emission (520 nm)) of donor emission to acceptor emission after excitation of the donor fluorophore at 400 nm, is used to quantitate reaction progress, as shown in the equation below. A significant benefit of this ratiometric method for quantitating reaction progress is the elimination of well-to-well variations in FRET-peptide concentration and signal intensities. As a result, the assay yields very high Z′-factor values (>0.7) at a low percent phosphorylation. Both cleaved and uncleaved FRET-peptides contribute to the fluorescence signals and therefore to the Emission Ratio. The extent of phosphorylation of the FRET-peptide can be calculated from the Emission Ratio. The Emission Ratio will remain low if the FRET-peptide is phosphorylated (i.e., no kinase inhibition) and will be high if the FRET-peptide is non-phosphorylated (i.e., kinase inhibition).
(§3) The Test Compounds are screened in 1% DMSO (final) in the well. For 10 point titrations, 3-fold serial dilutions are conducted from the starting concentration of the customer's choosing.
(§4) All Peptide/Kinase Mixtures are diluted to a 2× working concentration in the appropriate Kinase Buffer (see section Kinase Specific Assay Conditions for a complete description).
(§5) All ATP Solutions are diluted to a 4× working concentration in Kinase Buffer (50 mM HEPES pH 7.5, 0.01% BRIJ-35, 10 mM MgCl2, 1 mM EGTA). ATP Km apparent is previously determined using a Z″-LYTE assay.
(§6) The Development Reagent is diluted in Development Buffer (see section Kinase-Specific Assay Conditions—Direct and Cascade for a complete description).
(§7) Bar-coded Corning, low volume NBS, black 384-well plate (Corning Cat. #4514) • 1. 100 nL—100× Test Compound in 100% DMSO • 2. 2.4 μL—Kinase buffer • 3. 5 μL—2× Peptide/Kinase Mixture • 4. 2.5 μL—4×ATP Solution • 5. 30—second plate shake • 6. 60—minute Kinase Reaction incubation at room temperature • 7. 5 μL—Development Reagent Solution • 8. 30—second plate shake • 9. 60—minute Development Reaction incubation at room temperature • 10. Read on fluorescence plate reader and analyze the data Z′-LYTE Assay Controls
(§8) SelectScreen Kinase Profiling Service uses XLfit from IDBS. The dose response curve is curve fit to model number 205 (sigmoidal dose-response model).
The 2×PDGFRA (PDGFR alpha)/Tyr 04 mixture is prepared in 50 mM HEPES pH 7.5, 0.01% BRIJ-35, 10 mM MgCl2, 4 mM MnCl2, 1 mM EGTA, 2 mM DTT. The final 10 μL Kinase Reaction consists of 1.54-22.6 ng PDGFRA (PDGFR alpha) and 2 μM Tyr 04 in 50 mM HEPES pH 7.5, 0.01% BRIJ-35, 10 mM MgCl2, 2 mM MnCl2, 1 mM EGTA, 1 mM DTT. After the 1 hour Kinase Reaction incubation, 5 μL of a 1:64 dilution of Development Reagent B is added.

The next assay has as its target PTK2 (FAK) (Homo sapiens, UniProt Q05397). Description: Z'-LYTE SelectScreen biochemical kinase assay PTK2 (FAK).
Excerpt: as §1, §2, §3, §4, §5, §6, §7, §8
The 2×PTK2 (FAK)/Tyr 07 mixture is prepared in 50 mM HEPES pH 7.5, 0.01% BRIJ-35, 10 mM MgCl2, 1 mM EGTA. The final 10 μL Kinase Reaction consists of 12.5-100 ng PTK2 (FAK) and 2 μM Tyr 07 in 50 mM HEPES pH 7.5, 0.01% BRIJ-35, 10 mM MgCl2, 1 mM EGTA. After the 1 hour Kinase Reaction incubation, 5 μL of a 1:16 dilution of Development Reagent B is added.

A further assay deals with RET (Homo sapiens, UniProt P07949). Description: Z'-LYTE SelectScreen biochemical kinase assay RET.
Excerpt: as §1, §2, §3, §4, §5, §6, §7, §8
The 2×RET/Tyr 02 mixture is prepared in 50 mM HEPES pH 7.5, 0.01% BRIJ-35, 10 mM MgCl2, 1 mM EGTA. The final 10 μL Kinase Reaction consists of 0.49-3.64 ng RET and 2 μM Tyr 02 in 50 mM HEPES pH 7.5, 0.01% BRIJ-35, 10 mM MgCl2, 1 mM EGTA. After the 1 hour Kinase Reaction incubation, 5 μL of a 1:128 dilution of Development Reagent A is added.

The next assay deals with RPS6KB1 (p70S6K) (Homo sapiens, UniProt P23443). Description: Z'-LYTE SelectScreen biochemical kinase assay RPS6KB1 (p70S6K).
Excerpt: as §1, §2, §3, §4, §5, §6, §7, §8
The 2×RPS6 KB1 (p70S6K)/Ser/Thr 07 mixture is prepared in 50 mM HEPES pH 7.5, 0.01% BRIJ-35, 10 mM MgCl2, 1 mM EGTA. The final 10 μL Kinase Reaction consists of 2.87-17.7 ng RPS6 KB1 (p70S6K) and 2 μM Ser/Thr 07 in 50 mM HEPES pH 7.5, 0.01% BRIJ-35, 10 mM MgCl2, 1 mM EGTA. After the 1 hour Kinase Reaction incubation, 5 μL of a 1:45000 dilution of Development Reagent A is added.

The mark [1] stands for this setting: 10 μmolar compound concentration, ATP at Km app, read-out: PDGFRA (PDGFR alpha) inhibition.
[2] abbreviates: read-out: % Inhibition mean PDGFRA (PDGFR alpha).
Setting [3] is: 10 μmolar compound concentration, ATP at Km app, read-out: PTK2 (FAK) inhibition.
The mark [4] stands for this setting: read-out: % Inhibition mean PTK2 (FAK).
Setting [5] is: 10 μmolar compound concentration, ATP at Km app, read-out: RET inhibition.
Setting [6] is: read-out: % Inhibition mean RET.
Setting [7] is: 10 μmolar compound concentration, ATP at Km app, read-out: RPS6KB1 (p70S6K) inhibition.
Where [8] appears, read: read-out: % Inhibition mean RPS6KB1 (p70S6K).

In general, inhibition refers to the relative decrease from the control value, in per cent.

Like-named read-outs stand apart in the source and are kept apart here. Where only a bound is given, the exact number is not on record here.

RPS6KB1 (p70S6K), sequence (P23443 whole entry): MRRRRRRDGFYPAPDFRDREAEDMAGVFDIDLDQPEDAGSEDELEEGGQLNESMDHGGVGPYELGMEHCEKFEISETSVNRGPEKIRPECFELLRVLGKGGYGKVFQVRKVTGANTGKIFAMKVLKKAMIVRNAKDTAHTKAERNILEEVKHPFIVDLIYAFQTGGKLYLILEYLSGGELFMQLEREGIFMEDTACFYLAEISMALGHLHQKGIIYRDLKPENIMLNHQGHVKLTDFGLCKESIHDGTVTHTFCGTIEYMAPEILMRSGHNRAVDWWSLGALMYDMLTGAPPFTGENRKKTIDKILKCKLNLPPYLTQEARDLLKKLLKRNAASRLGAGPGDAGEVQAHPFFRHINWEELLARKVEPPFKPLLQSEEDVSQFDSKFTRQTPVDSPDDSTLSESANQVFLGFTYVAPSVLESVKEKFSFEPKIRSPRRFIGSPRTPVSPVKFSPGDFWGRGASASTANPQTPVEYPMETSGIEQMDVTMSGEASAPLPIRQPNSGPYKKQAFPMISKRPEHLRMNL
PTK2 (FAK), sequence (Q05397 whole entry): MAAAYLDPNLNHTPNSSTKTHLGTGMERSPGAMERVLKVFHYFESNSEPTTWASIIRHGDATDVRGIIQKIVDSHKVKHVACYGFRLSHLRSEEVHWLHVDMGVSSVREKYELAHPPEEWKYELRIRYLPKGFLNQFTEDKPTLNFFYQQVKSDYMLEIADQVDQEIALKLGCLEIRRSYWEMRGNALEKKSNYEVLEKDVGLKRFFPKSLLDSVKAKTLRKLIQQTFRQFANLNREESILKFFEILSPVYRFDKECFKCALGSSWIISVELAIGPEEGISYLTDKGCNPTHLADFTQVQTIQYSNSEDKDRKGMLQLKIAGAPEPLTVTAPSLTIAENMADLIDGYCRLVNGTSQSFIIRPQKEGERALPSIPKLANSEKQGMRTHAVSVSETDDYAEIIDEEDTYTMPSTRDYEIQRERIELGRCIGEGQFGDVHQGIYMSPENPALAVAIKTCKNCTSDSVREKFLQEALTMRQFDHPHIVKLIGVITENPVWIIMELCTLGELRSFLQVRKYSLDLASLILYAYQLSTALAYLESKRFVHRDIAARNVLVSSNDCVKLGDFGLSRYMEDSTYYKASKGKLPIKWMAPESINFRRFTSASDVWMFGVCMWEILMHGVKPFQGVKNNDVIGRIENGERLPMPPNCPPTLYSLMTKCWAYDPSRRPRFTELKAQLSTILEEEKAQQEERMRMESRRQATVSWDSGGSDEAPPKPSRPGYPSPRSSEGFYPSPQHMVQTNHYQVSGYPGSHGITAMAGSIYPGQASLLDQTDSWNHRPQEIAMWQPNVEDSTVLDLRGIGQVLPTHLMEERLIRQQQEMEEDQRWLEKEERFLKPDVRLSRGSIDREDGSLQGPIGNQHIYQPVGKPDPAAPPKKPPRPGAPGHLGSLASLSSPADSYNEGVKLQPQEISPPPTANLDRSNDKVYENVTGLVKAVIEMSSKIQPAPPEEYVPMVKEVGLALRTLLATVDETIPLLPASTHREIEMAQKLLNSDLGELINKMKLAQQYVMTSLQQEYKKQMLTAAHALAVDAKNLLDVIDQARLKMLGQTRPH
RET, sequence (P07949 29-1114): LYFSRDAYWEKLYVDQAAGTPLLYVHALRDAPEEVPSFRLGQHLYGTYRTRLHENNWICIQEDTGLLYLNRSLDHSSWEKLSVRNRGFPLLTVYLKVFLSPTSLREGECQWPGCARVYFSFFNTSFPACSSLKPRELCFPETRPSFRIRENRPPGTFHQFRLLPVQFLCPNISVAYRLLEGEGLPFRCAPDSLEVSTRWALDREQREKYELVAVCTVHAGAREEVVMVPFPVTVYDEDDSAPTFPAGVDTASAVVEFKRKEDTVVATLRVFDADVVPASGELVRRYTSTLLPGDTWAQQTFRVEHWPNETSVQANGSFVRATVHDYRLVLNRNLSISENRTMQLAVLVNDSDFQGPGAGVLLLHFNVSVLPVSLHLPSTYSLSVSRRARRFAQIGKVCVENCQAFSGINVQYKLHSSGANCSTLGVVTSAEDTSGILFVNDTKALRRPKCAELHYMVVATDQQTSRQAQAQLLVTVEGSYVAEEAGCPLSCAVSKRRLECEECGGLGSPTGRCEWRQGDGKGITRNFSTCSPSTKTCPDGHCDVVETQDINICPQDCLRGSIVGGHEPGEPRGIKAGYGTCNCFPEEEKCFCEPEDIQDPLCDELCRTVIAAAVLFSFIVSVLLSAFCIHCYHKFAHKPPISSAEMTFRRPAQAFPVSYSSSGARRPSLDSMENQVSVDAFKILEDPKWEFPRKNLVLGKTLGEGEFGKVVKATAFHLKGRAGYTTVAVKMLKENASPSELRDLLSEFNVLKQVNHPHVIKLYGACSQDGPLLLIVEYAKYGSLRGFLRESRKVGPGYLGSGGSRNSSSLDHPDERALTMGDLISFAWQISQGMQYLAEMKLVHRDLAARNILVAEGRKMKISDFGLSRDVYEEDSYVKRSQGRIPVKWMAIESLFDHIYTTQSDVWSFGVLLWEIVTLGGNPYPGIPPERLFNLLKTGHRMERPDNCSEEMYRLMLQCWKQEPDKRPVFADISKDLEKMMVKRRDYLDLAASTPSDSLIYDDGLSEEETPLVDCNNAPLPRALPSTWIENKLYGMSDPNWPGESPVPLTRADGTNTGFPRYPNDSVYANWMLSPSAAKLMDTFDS
PDGFRA (PDGFR alpha), sequence (P16234 24-1089): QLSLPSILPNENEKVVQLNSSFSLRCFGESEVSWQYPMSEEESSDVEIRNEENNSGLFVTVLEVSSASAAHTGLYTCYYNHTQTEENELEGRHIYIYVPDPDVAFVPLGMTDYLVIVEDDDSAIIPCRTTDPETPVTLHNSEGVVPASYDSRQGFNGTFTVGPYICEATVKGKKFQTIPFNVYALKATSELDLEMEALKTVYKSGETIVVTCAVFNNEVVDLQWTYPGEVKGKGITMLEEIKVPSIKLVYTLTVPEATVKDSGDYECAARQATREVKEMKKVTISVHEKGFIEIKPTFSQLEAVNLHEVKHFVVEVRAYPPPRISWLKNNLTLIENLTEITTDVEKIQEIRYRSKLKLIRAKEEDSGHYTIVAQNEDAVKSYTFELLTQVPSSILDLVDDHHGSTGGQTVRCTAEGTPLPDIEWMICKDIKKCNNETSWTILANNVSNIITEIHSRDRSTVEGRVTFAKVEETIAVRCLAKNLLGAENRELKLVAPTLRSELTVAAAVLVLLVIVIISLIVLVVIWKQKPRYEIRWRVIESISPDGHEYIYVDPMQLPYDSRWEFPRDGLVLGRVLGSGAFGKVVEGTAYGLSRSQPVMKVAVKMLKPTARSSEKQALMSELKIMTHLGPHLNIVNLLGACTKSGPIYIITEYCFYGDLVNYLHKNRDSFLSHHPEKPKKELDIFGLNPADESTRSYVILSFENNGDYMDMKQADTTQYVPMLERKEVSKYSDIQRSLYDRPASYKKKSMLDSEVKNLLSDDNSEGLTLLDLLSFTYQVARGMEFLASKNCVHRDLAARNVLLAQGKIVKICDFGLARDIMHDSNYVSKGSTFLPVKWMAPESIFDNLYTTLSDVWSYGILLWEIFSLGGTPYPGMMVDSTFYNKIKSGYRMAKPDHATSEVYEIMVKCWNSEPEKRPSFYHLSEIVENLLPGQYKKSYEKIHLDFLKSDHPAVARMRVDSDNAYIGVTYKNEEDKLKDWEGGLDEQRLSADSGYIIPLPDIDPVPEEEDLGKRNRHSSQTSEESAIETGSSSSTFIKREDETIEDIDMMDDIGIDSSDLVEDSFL

Take `Cc1cc(F)ccc1-c1cccn2nc(NC3CCc4c(cnn4C(C)C)C3)nc12` (stereo not drawn) [Example 44, [8-(4-fluoro-2-methyl-phenyl)-[1,2,4]triazolo[1,5-a]pyridine-2-yl]-(1-isopropyl-4,5,6,7-tetrahydro-1H-indazol-5-yl)-amine]: the inhibition at 10 µM was < 40% on PDGFRA (PDGFR alpha) (setting [1]); 5% at PDGFRA (PDGFR alpha) (setting [2]); < 40% on PTK2 (FAK) (setting [3]); 15% on PTK2 (FAK) (setting [4]); < 40% on RET (setting [5]); 20% at RET (setting [6]). Further, the inhibition at 10 µM on RPS6KB1 (p70S6K) (setting [7]) is < 40%; at RPS6KB1 (p70S6K) (setting [8]), 12%.

Take `CCn1ncc2c1CC[C@H](Nc1nc3c(-c4ccc(F)c(Cl)c4)cccn3n1)C2` [Example S-61, (S)-[8-(3-Chloro-4-fluoro-phenyl)-[1,2,4]triazolo[1,5-a]pyridine-2-yl]-(1-ethyl-4,5,6,7-tetrahydro-1H-indazol-5-yl)-amine]: the inhibition at 10 µM on PDGFRA (PDGFR alpha) (setting [1]) is < 40%; on PDGFRA (PDGFR alpha) (setting [2]), 13%; at PTK2 (FAK) (setting [3]), < 40%; on PTK2 (FAK) (setting [4]), 23%; on RET (setting [5]) it was < 40%; at RET (setting [6]), 23%. For the same compound, the inhibition at 10 µM at RPS6KB1 (p70S6K) (setting [7]) is < 40%; at RPS6KB1 (p70S6K) (setting [8]) it was 22%.

As to `CCn1nnc2c1CCC(Nc1nc3c(-c4ccc(F)cc4C)cccn3n1)C2` (stereo not drawn) [Example 51, (1-Ethyl-4,5,6,7-tetrahydro-1H-benzotriazol-5-yl)-[8-(4-fluoro-2-methyl-phenyl)-[1,2,4]triazolo[1,5-a]pyridine-2-yl]-amine], the inhibition at 10 µM is < 40% at PDGFRA (PDGFR alpha) (setting [1]); 14% on PDGFRA (PDGFR alpha) (setting [2]); < 40% at PTK2 (FAK) (setting [3]); 27% on PTK2 (FAK) (setting [4]); < 40% at RET (setting [5]); 2% on RET (setting [6]). Moreover, the inhibition at 10 µM at RPS6KB1 (p70S6K) (setting [7]) is < 40%; at RPS6KB1 (p70S6K) (setting [8]) it was 1%.

For `CCn1ncc2c1CC[C@@H](Nc1nc3c(-c4ccc(F)cc4C)cccn3n1)C2` [Example R-42, (R)-(1-Ethyl-4,5,6,7-tetrahydro-1H-indazol-5-yl)-[8-(4-fluoro-2-methyl-phenyl)-[1,2,4]triazolo[1,5-a]pyridine-2-yl]-amine], the inhibition at 10 µM was < 40% on PDGFRA (PDGFR alpha) (setting [1]); 18% at PDGFRA (PDGFR alpha) (setting [2]); < 40% at PTK2 (FAK) (setting [3]); 28% at PTK2 (FAK) (setting [4]); < 40% on RET (setting [5]); 23% at RET (setting [6]). For the same compound, the inhibition at 10 µM on RPS6KB1 (p70S6K) (setting [7]) is < 40%; at RPS6KB1 (p70S6K) (setting [8]), 22%.

`CCn1ncc2c1CCC(Nc1nc3c(-c4cccnc4OC)cccn3n1)C2` (stereo not drawn) [Example 69, (1-Ethyl-4,5,6,7-tetrahydro-1H-indazol-5-yl)-[8-(2-methoxy-pyridin-3-yl)-[1,2,4]triazolo[1,5-a]pyridine-2-yl]-amine]: the inhibition at 10 µM was < 40% at PDGFRA (PDGFR alpha) (setting [1]); 17% on PDGFRA (PDGFR alpha) (setting [2]); < 40% at PTK2 (FAK) (setting [3]); 24% at PTK2 (FAK) (setting [4]); < 40% at RET (setting [5]); 16% on RET (setting [6]). Besides, the inhibition at 10 µM at RPS6KB1 (p70S6K) (setting [7]) was < 40%; on RPS6KB1 (p70S6K) (setting [8]), 31%.

In the case of `CCn1nc(Cl)c2c1CCC(Nc1nc3c(-c4ccc(F)cc4C)cccn3n1)C2` (stereo not drawn) [Example 48, (3-Chloro-1-ethyl-4,5,6,7-tetrahydro-1H-indazol-5-yl)-[8-(4-fluoro-2-methyl-phenyl)-[1,2,4]triazolo[1,5-a]pyridine-2-yl]-amine], the inhibition at 10 µM is < 40% at PDGFRA (PDGFR alpha) (setting [1]); 19% on PDGFRA (PDGFR alpha) (setting [2]); < 40% on PTK2 (FAK) (setting [3]); 24% on PTK2 (FAK) (setting [4]); < 40% on RET (setting [5]); 18% at RET (setting [6]). The inhibition at 10 µM was < 40% at RPS6KB1 (p70S6K) (setting [7]) and 15% on RPS6KB1 (p70S6K) (setting [8]).

As to `CCn1ncc2c1CCC(Nc1nc3c(-c4cccc(Cl)c4)cccn3n1)C2` (stereo not drawn) [Example 59, [8-(3-Chloro-phenyl)-[1,2,4]triazolo[1,5-a]pyridine-2-yl]-(1-ethyl-4,5,6,7-tetrahydro-1H-indazol-5-yl)-amine], the inhibition at 10 µM on PDGFRA (PDGFR alpha) (setting [1]) is < 40%; on PDGFRA (PDGFR alpha) (setting [2]), 5%; on PTK2 (FAK) (setting [3]) it was < 40%; at PTK2 (FAK) (setting [4]), 16%; at RET (setting [5]) it was < 40%; at RET (setting [6]), 29%. In addition, the inhibition at 10 µM was < 40% at RPS6KB1 (p70S6K) (setting [7]) and 6% at RPS6KB1 (p70S6K) (setting [8]).

Take `CCn1ncc2c1CCC(Nc1nc3c(-c4cccnc4)cccn3n1)C2` (stereo not drawn) [Example 63, (1-Ethyl-4,5,6,7-tetrahydro-1H-indazol-5-yl)-(8-pyridin-3-yl-[1,2,4]triazolo[1,5-a]pyridine-2-yl)-amine]: the inhibition at 10 µM was < 40% at PDGFRA (PDGFR alpha) (setting [1]); 20% on PDGFRA (PDGFR alpha) (setting [2]); < 40% on PTK2 (FAK) (setting [3]); 13% on PTK2 (FAK) (setting [4]); < 40% on RET (setting [5]); 20% on RET (setting [6]). For the same compound, the inhibition at 10 µM was < 40% on RPS6KB1 (p70S6K) (setting [7]) and 3% on RPS6KB1 (p70S6K) (setting [8]).

`Cc1cc(F)ccc1-c1cccn2nc(NC3CCc4c(cnn4CC(C)C)C3)nc12` (stereo not drawn) [Example 45, [8-(4-fluoro-2-methyl-phenyl)-[1,2,4]triazolo[1,5-a]pyridine-2-yl]-(1-isobutyl-4,5,6,7-tetrahydro-1H-indazol-5-yl)-amine]: the inhibition at 10 µM is < 40% at PDGFRA (PDGFR alpha) (setting [1]); 30% at PDGFRA (PDGFR alpha) (setting [2]); < 40% at PTK2 (FAK) (setting [3]); 20% on PTK2 (FAK) (setting [4]); < 40% at RET (setting [5]); 30% on RET (setting [6]). Further, the inhibition at 10 µM is < 40% at RPS6KB1 (p70S6K) (setting [7]) and 7% on RPS6KB1 (p70S6K) (setting [8]).
